Molecules are shown by their SMILES.

We go through three compounds from patent publication US20160326153A1, “N-SUBSTITUTED IMINO HETEROCYCLIC COMPOUNDS” (BASF SE, priority 2013, published 2016).

What all share (format): in vivo
The test system of one series is Myzus persicae. The experiment in a line: Green peach aphid (Myzus persicae) through systemic means, artificial diet under membrane in microtiter plates. The following applies: 72 h, read-out: mortality in comparison with untreated controls. From the text:
For evaluating control of green peach aphid (Myzus persicae) through systemic means the test unit consisted of 96-well-microtiter plates containing liquid artificial diet under an artificial membrane.
The compounds were formulated using a solution containing 75% v/v water and 25% v/v DMSO. Different concentrations of formulated compounds were pipetted into the aphid diet, using a custom built pipetter, at two replications.
After application, 5-8 adult aphids were placed on the artificial membrane inside the microtiter plate wells. The aphids were then allowed to suck on the treated aphid diet and incubated at about 23±1° C. and about 50±5% relative humidity for 3 days. Aphid mortality and fecundity was then visually assessed.

In a further series the test system is Megoura viciae. Description: Vetch aphid (Megoura viciae) through contact or systemic means, broad bean leaf disks. Conditions: foliar, 120 h, read-out: mortality in comparison with untreated controls. The procedure: B.10 Vetch Aphid (Megoura viciae)
For evaluating control of vetch aphid (Megoura viciae) through contact or systemic means the test unit consisted of 24-well-microtiter plates containing broad bean leaf disks.
The compounds were formulated using a solution containing 75% v/v water and 25% v/v DMSO. Different concentrations of formulated compounds were sprayed onto the leaf disks at 2.5 μl, using a custom built micro atomizer, at two replications.
After application, the leaf disks were air-dried and 5-8 adult aphids placed on the leaf disks inside the microtiter plate wells. The aphids were then allowed to suck on the treated leaf disks and incubated at about 23±1° C. and about 50±5% relative humidity for 5 days. Aphid mortality and fecundity was then visually assessed.

For the next series, the system named is Aedes aegypti. The experiment in a line: whole plant or invertebrate. The following applies: 48 h, larval mortality after 2 days, read-out: mortality in comparison with untreated controls. The procedure:
B.11 Yellow Fever Mosquito (Aedes aegypti)
For evaluating control of yellow fever mosquito (Aedes aegypti) the test unit consisted of 96-well-microtiter plates containing 200 μl of tap water per well and 5-15 freshly hatched A. aegypti larvae.
The active compounds were formulated using a solution containing 75% (v/v) water and 25% (v/v) DMSO. Different concentrations of formulated compounds or mixtures were sprayed onto the insect diet at 2.5 μl, using a custom built micro atomizer, at two replications.
After application, microtiter plates were incubated at 28+1° C., 80+5% RH for 2 days. Larval mortality was then visually assessed.

The subject of another series is Aphis craccivora. Description: Cowpea aphid (Aphis craccivora) on sprayed cowpea plants. The following applies: 72 h, read-out: mortality in comparison with untreated controls. The procedure:
B.3 Cowpea Aphid (Aphis craccivora)
The active compound is dissolved at the desired concentration in a mixture of 1:1 (vol:vol) distilled water:acetone. Surfactant (Kinetic HV) is added at a rate of 0.01% (vol/vol). The test solution is prepared at the day of use.
Potted cowpea plants were colonized with approximately 50-100 aphids of various stages by manually transferring a leaf tissue cut from infested plant 24 hours before application. Plants were sprayed after the pest population has been recorded. Treated plants are maintained on light carts at about 28° C. Percent mortality was assessed after 72 hours.

For a further series, the system named is Nephotettix virescens. The experiment in a line: Rice green leafhopper (Nephotettix virescens) on sprayed rice seedlings. Conditions: 72 h, read-out: mortality in comparison with untreated controls. The procedure: B.7 Rice Green Leafhopper (Nephotettix virescens)
Rice seedlings were cleaned and washed 24 hours before spraying. The active compounds were formulated in 1:1 acetone:water (vol:vol), and 0.01% vol/vol surfactant (Kinetic HV) was added. Potted rice seedlings were sprayed with 5-6 ml test solution, air dried, covered with Mylar cages cages and inoculated with 10 adults. Treated rice plants were kept at about 28-29° C. and relative humidity of about 50-60%. Percent mortality was recorded after 72 hours.

A further series deals with Ceratitis capitata. The experiment in a line: Mediterranean fruitfly (Ceratitis capitata) control, microtiter plates with insect diet and eggs. The following applies: 120 h, read-out: mortality in comparison with untreated controls. The method, then: B.5 Mediterranean Fruitfly (Ceratitis capitata)
For evaluating control of Mediterranean fruitfly (Ceratitis capitata) the test unit consisted of microtiter plates containing an insect diet and 50-80 C. capitata eggs.
The compounds were formulated using a solution containing 75% v/v water and 25% v/v DMSO. Different concentrations of formulated compounds were sprayed onto the insect diet at 5 μl, using a custom built micro atomizer, at two replications.
After application, microtiter plates were incubated at about 28±1° C. and about 80±5% relative humidity for 5 days. Egg and larval mortality was then visually assessed.

A further series concerns Nilaparvata lugens. Description: Rice brown plant hopper (Nilaparvata lugens) on sprayed rice seedlings. Conditions: 100 ppm; after 72 hours. The procedure: B.9 Rice Brown Plant Hopper (Nilaparvata lugens)
Rice seedlings were cleaned and washed 24 hours before spraying. The active compounds were formulated in 1:1 acetone:water (vol:vol) and 0.01% vol/vol surfactant (Kinetic HV) was added. Potted rice seedlings were sprayed with 5 ml test solution, air dried, covered with Mylar cages and inoculated with 10 adults. Treated rice plants were kept at about 28-29° C. and relative humidity of about 50-60%. Percent mortality was recorded after 72 hours.

Consider `CO/N=C/C(=O)ON=c1ccccn1Cc1cnc(Cl)s1` (mixture of isomers) [IA.1-4, [(E/Z)-[1-[(2-chlorothiazol-5-yl)methyl]-2-pyridylidene]amino] (2E/Z)-2-methoxyimino-acetate], for which the mortality at 2500 ppm in the series on Myzus persicae, in the series with Megoura viciae and in the series on Aedes aegypti was not below 75% each time.

For the compound `CNC(=O)NN=c1ccccn1Cc1ccc(Cl)nc1` (mixture of isomers) [IB.1-1, 1-[(E/Z)-[1-[(6-chloro-3-pyridyl)methyl]-2-pyridylidene]amino]-3-methyl-urea], the mortality at 2500 ppm in the series on Myzus persicae, with Megoura viciae, in the series on Ceratitis capitata and in the series with Aedes aegypti was not below 75% in each case. Moreover, the mortality at 500 ppm in the series on Aphis craccivora and in the series on Nephotettix virescens was not below 75% throughout.

As for `O=C(NCC(F)(F)F)NN=c1ccccn1Cc1ccc(Cl)nc1` [IB.1-3], the “mortality in comparison with untreated controls” value with Nilaparvata lugens is on record as “at least 75%”.
